Measurements as given in patent US10363239B2, “Method for inhibiting growth of cancer cells” (Pain Therapeutics, Inc., priority 2013, dated 2019).
Read-outs that look alike come from different tables or passages of the source.

Legend:
[1] = test system: mu opiate receptor (MOR); assay: MOR agonist activity using [35S]GTPγS binding assay in striatal membranes; format: biochemical; conditions: for % DAMGO (0.1 μM) / % DAMGO (1 μM): relative to DAMGO; for % DAMGO + BFNA: 1 μM compound + β-FNA, relative to DAMGO + BFNA
Procedure: To assess the mu opiate receptor (MOR) agonist activity of positive compounds from the FLNA screening, compounds were tested in a [^35S]GTPγS binding assay using striatal membranes. […] This assay measures a functional consequence of receptor occupancy at one of the earliest receptor-mediated events. The assay permits traditional pharmacological parameters of potency, efficacy and antagonist affinity, with the advantage that agonist measures are not subjected to amplification or other modulation that may occur when analyzing parameters further downstream of the receptor.
Thus, striatal tissue was homogenized in 10 volumes of ice cold 25 mM HEPES buffer, pH 7.4, which contained 1 mM EGTA, 100 mM sucrose, 50 μg/ml leupeptin, 0.04 mM PMSF, 2 μg/ml soybean trypsin inhibitor and 0.2% 2-mercaptoethanol. The homogenates were centrifuged at 800×g for 5 minutes and the supernatants were centrifuged at 49,000×g for 20 minutes. The resulting pellets were suspended in 10 volume of reaction buffer, which contained 25 mM HEPES, pH 7.5, 100 mM NaCl, 50 μg/ml leupeptin, 2 μg/ml soybean trypsin inhibitor, 0.04 mM PMSF and 0.02% […].
The resultant striatal membrane preparation (200 μg) was admixed and maintained (incubated) at 30° C. for 5 minutes in reaction buffer as above that additionally contained 1 mM MgCl2 and 0.5 nM [^35S]GTPγS (0.1 μCi/assay, PerkinElmer Life and Analytical Sciences) in a total volume of 250 μl and continued for 5 minutes in the absence or presence of 0.1-10 μM of an assayed compound of interest. The reaction was terminated by dilution with 750 μl of ice-cold reaction buffer that contained 20 mM MgCl2 and 1 mM EGTA and immediate centrifugation at 16,000×g for 5 minutes.
The resulting pellet was solubilized by sonicating for 10 seconds in 0.5 ml of immunoprecipitation buffer containing 0.5% digitonin, 0.2% sodium cholate and 0.5% NP-40. Normal rabbit serum (1 μl) was added to 1 ml of lysate and incubated at 25° C. for 30 minutes. Nonspecific immune complexes were removed by incubation with 25 μl of protein A/G-conjugated agarose beads at 25° C. for 30 minutes followed by centrifugation at 5,000×g at 4° C. for 5 minutes. The supernatant was divided and separately incubated at 25° C. for 30 minutes with antibodies raised against Gαo proteins (1:1,000 dilutions).
The immunocomplexes so formed were collected by incubation at 25° C. for 30 minutes with 40 μl of agarose-conjugated protein A/G beads and centrifugation at 5,000×g at 4° C. for 5 minutes. The pellet was washed and suspended in buffer containing 50 mM Tris-HCl, pH 8.0, and 1% NP-40. The radioactivity in the suspension was determined by liquid scintillation spectrometry.

[2] = biological target: FLNA pentapeptide of SEQ ID NO: 1 (Bn-VAKGL) (Homo sapiens, UniProt P21333); assay: FITC-NLX-based FLNA screening assay (inhibition of FITC-naloxone binding to Bn-VAKGL on streptavidin plates); conditions: for Percent inhibition of FITC-NLX binding (preliminary study): 100 nM frozen-stored FITC-NLX, average of two runs; for inhibition at 0.01 µM / inhibition at 0.1 µM / inhibition at 1 µM / Percent Binding Inhibition: 10 nM FITC-NLX
[3] = Series C-1, 0.1 μM compound, [35S]GTPγS binding to Gαo, striatal membranes
[4] = Series C-1, 1 μM compound + 1 μM β-FNA
[5] = Series C-1, 1 μM compound, [35S]GTPγS binding to Gαo, striatal membranes
[6] = FLNA-binding compound 0.01 μM, read-out: Percent Binding Inhibition
[7] = FLNA-binding compound 0.1 μM, read-out: Percent Binding Inhibition
[8] = FLNA-binding compound 1 μM, read-out: Percent Binding Inhibition

COc1ccc(CCCCC2c3c(cc4c(c3OC)OCO4)CC[N+]2(C)C)cc1 (stereo not drawn) [Compound B0056]
% DAMGO (0.1 μM) ([1]; Series B, 0.1 μM compound): 98.9% | MOR agonist activity, percent [35S]GTPγS binding at the stated compound concentration ([1]; Series B, 0.1 μM compound, [35S]GTPγS binding to Gαo, striatal membranes): 174.7% | MOR agonist activity, percent [35S]GTPγS binding at the stated compound concentration ([1]; Series B, 1 μM compound + 1 μM β-FNA): 41.8% | % DAMGO + BFNA ([1]; Series B): 158.9% | % DAMGO (1 μM) ([1]; Series B, 1 μM compound): 113.6% | MOR agonist activity, percent [35S]GTPγS binding at the stated compound concentration ([1]; Series B, 1 μM compound, [35S]GTPγS binding to Gαo, striatal membranes): 288.8%

CC(=O)c1ccc(S(=O)(=O)N2CCC3(CC2)NC(=O)CN3Cc2ccccc2)cc1 [Compound C0085M]
% DAMGO (0.1 μM) ([1]; Series C-1, 0.1 μM compound): 105.5% | % DAMGO + BFNA ([1]; Series C-1): 112.6% | % DAMGO (1 μM) ([1]; Series C-1, 1 μM compound): 78.4%

C=CCN1CC[C@]23c4c5ccc(O)c4O[C@H]2C(=O)CC[C@]3(O)[C@H]1C5 [(+) NLX]
Percent inhibition of FITC-NLX binding (preliminary study) ([2]; compound 0.1 nM): 22.7% | Percent inhibition of FITC-NLX binding (preliminary study) ([2]; compound 1 nM): 22.8% | Percent inhibition of FITC-NLX binding (preliminary study) ([2]; compound 10 nM): 23.1% | Percent inhibition of FITC-NLX binding (preliminary study) ([2]; compound 100 nM): 22.8% | Percent inhibition of FITC-NLX binding (preliminary study) ([2]; compound 1 µM): 39.8%

C[C@@H](NC(=O)[C@@H](N)Cc1ccc(O)cc1)C(=O)NCC(=O)N(C)[C@@H](Cc1ccccc1)C(=O)NCCO [DAMGO, [D-Ala2, N-MePhe4, Gly-ol]-enkephalin, reference compound]
MOR agonist activity, FLNA-Binding Compound as Agonist 0.1 μM (preliminary study) ([1]; 0.1 μM, average of two runs): 144.7% | MOR agonist activity, FLNA-Binding Compound as Agonist 1 μM + βNFA (preliminary study) ([1]; 1 μM + βNFA, average of two runs): 56.8% | MOR agonist activity, FLNA-Binding Compound as Agonist 1 μM (preliminary study) ([1]; 1 μM, average of two runs): 233.4% | % DAMGO (0.1 μM) ([1]; Series C-1, 0.1 μM compound): 100% | Concentration of FLNA-Binding Compound as Agonist 0.1 μM [1, 3]: 168.5% | Concentration of FLNA-Binding Compound as Agonist 1 μM + BFNA [1, 4]: 53.2% | % DAMGO + BFNA ([1]; Series C-1): 100% | % DAMGO (1 μM) ([1]; Series C-1, 1 μM compound): 100% | Concentration of FLNA-Binding Compound as Agonist 1 μM [1, 5]: 266.1% | % DAMGO (0.1 μM) ([1]; Series C-2, 0.1 μM compound): 100% | Concentration of FLNA-Binding Compound as Agonist 0.1 μM ([1]; Series C-2, 0.1 μM compound, [35S]GTPγS binding to Gαo, striatal membranes): 168.5% | Concentration of FLNA-Binding Compound as Agonist 1 μM + BFNA ([1]; Series C-2, 1 μM compound + 1 μM β-FNA): 53.2% | % DAMGO + BFNA ([1]; Series C-2): 100% | % DAMGO (1 μM) ([1]; Series C-2, 1 μM compound): 100% | Concentration of FLNA-Binding Compound as Agonist 1 μM ([1]; Series C-2, 1 μM compound, [35S]GTPγS binding to Gαo, striatal membranes): 266.1%

COc1ccc(CN2CCC3(CC2)OCCN3S(=O)(=O)c2ccc(OC)cc2)cc1 [Compound C0038]
inhibition at 0.01 µM [2, 6]: 31.7% | inhibition at 0.1 µM [2, 7]: 36% | inhibition at 1 µM [2, 8]: 43.5%

O=C1CC[C@@]2(O)[C@H]3Cc4ccc(O)c5c4[C@@]2(CCN3CC2CC2)[C@H]1O5 [NTX, naltrexone, reference compound]
Inhibition of 10 nM FITC-conjugated NLX binding to biotinylated FLNA pentapeptide (FIG. 28) ([2]; 1 μM): inhibit well

O=C1CNC2(CCN(CC3CC3)CC2)N1 [Compound C0123M]
inhibition at 0.01 µM [2, 6]: 51.9% | inhibition at 0.1 µM [2, 7]: 60.5% | inhibition at 1 µM [2, 8]: 62.9%

COc1ccc(OCC(O)CN2CCc3ccccc32)cc1 (stereo not drawn) [Compound A0069]
Percent Binding Inhibition ([2]; FLNA-binding compound 0.01 μM): 32.0% | Percent Binding Inhibition ([2]; FLNA-binding compound 0.1 μM): 40.4% | Percent Binding Inhibition ([2]; FLNA-binding compound 1 μM): 46.1%

O=C(c1ccc([N+](=O)[O-])cc1)N1CCC2(CC1)OCCN2S(=O)(=O)c1ccc([N+](=O)[O-])cc1 [Compound C0033]
% DAMGO (0.1 μM) ([1]; Series C-1, 0.1 μM compound): 85.9% | Concentration of FLNA-Binding Compound as Agonist 0.1 μM [1, 3]: 134.5% | Concentration of FLNA-Binding Compound as Agonist 1 μM + BFNA [1, 4]: 76.6% | % DAMGO + BFNA ([1]; Series C-1): 235.0% | % DAMGO (1 μM) ([1]; Series C-1, 1 μM compound): 80.6% | Concentration of FLNA-Binding Compound as Agonist 1 μM [1, 5]: 186.4%

COc1c2c(cc3c1C(CC(=O)CCc1ccccc1)[N+](C)(C)CC3)OCO2 (stereo not drawn) [Compound B0015]
inhibition at 0.01 µM ([2]; read-out: Percent Binding Inhibition, FLNA-binding compound 0.01 μM): 30.4% | inhibition at 0.1 µM ([2]; read-out: Percent Binding Inhibition, FLNA-binding compound 0.1 μM): 35.3% | inhibition at 1 µM ([2]; read-out: Percent Binding Inhibition, FLNA-binding compound 1 μM): 42.3%
